From patent US12590079B2, “Compounds and uses thereof” (FOGHORN THERAPEUTICS INC., priority 2019, dated 2026) come the findings set out here.

Holding throughout (assay type): cell-based
Assay [1] concerns synovial sarcoma cell lines (SYO1, Yamato, HS-SY-II, and ASKA). In words: Cell growth (confluency, crystal violet, colony imaging), synovial sarcoma cell lines, Example 2. The settings on record: 1 μM or indicated concentrations, day 11 to 23. The method, then:
(§1) Cells were treated with DMSO or the BRD9 degrader, Compound 1, at indicated concentrations, and proliferation was monitored from day 7 to day 14 by measuring confluency overtime using an IncuCyte live cell analysis system (FIG. 5). Growth medium and compounds were refreshed every 3-4 days.
(§2) Cells were seeded into 12-well plates and treated with DMSO, 1 μM BRD9 inhibitor, Compound 2 (also known as BI-7273, see Martin et al, J Med Chem. 59(10):4462-4475 (2016); see structure of compound 2 below), or 1 μM BRD9 degrader, Compound 1.
(§3) The number of cells was optimized for each cell line. Growth medium and compounds were refreshed every 3-5 days. SYO1, Yamato, A549, 293T and HS-SY-II cells were fixed and stained at day 11. ASKA cells were fixed and stained at day 23. Staining was done by incubation with crystal violet solution (0.5 g Crystal Violet, 27 ml 37% Formaldehyde, 100 mL 10×PBS, 10 mL Methanol, 863 dH20 to 1 L) for 30 min followed by 3× washes with water and drying the plates for at least 24 h at room temperature. Subsequently plates were scanned on an Odyssey CLx Imaging system (FIG. 6).
(§4) Cells were seeded into 96-well ultra-low cluster plate (Costar, #7007) in 200 μL complete media and treated at day 2 with DMSO, Staurosporin, or BRD9 degrader, Compound 1, at indicated doses (FIG. 3C). Media and compounds were changed every 5 d and cell colonies were imaged at day 14.

Assay [2] relates to non-synovial control cancer cell lines (293T, A549, G401). In words: Cell growth (confluency, crystal violet, colony imaging), non-synovial control lines, Example 2. The note with it: 1 μM or indicated concentrations. As to the method: as §1, §2, §3, §4
Assay [3] has as its system synovial sarcoma cell lines (SYO1, HS-SY-II, and ASKA). Put plainly: Crystal violet cell growth, synovial sarcoma cell lines, Example 3. The note with it: for inhibition of the growth of the cells: SYO1, HS-SY-II, ASKA, treated daily, stained by day 14. As to the method: (§5) Procedure: Cells were seeded into 6-well or 12-well plates and were treated daily with a BRD9 degrader (Compound 1), a bromo-domain BRD9 binder (Compound 2), E3 ligase binder (lenalidomide), DMSO, or staurosporin (positive control for cell killing), at indicated concentrations. The number of cells was optimized for each cell line. Growth media was refreshed every 5 days. By day 14, medium was removed, cells were washed with PBS, and stained using 500 μL of 0.005% (w/v) crystal violet solution in 25% (v/v) methanol for at least 1 hour at room temperature. Subsequently plates were scanned on an Odyssey CLx Imaging system.

Assay [4] concerns non-synovial control cancer cell lines (RD, HCT116, and Calu6). Put plainly: Crystal violet cell growth, non-synovial control lines, Example 3. The settings on record: treated daily, stained by day 14. The method, then: as §5
The test system of assay [5] is SYO1 cells. In words: Cell cycle analysis (Click-iT Plus EdU flow cytometry). The settings on record: 200 nM or 1 μM, 8 or 13 days, compared to DMSO and lenalidomide. As to the method:
(§6) Procedure: SYO1 cells were treated for 8 or 13 days with DMSO, a BRD9 degrader (Compound 1) at 200 nM or 1 μM, or an E3 ligase binder (lenalidomide) at 200 nM. Compounds were refreshed every 5 days. Cell cycle analysis was performed using the Click-iT™ Plus EdU Flow Cytometry Assay (Invitrogen). The apoptosis assay was performed using the Annexin V-FITC Apoptosis Detection Kit (Sigma A9210). Assays were performed according to the manufacturer's protocol.
Background: In flow cytometry, cells or beads pass a laser one at a time.

The test system of assay [6] is SYO1 cells. In words: Apoptosis assay (Annexin V-FITC). The note with it: 200 nM or 1 μM, 8 days, compared to DMSO controls. The method, then: as §6
Assay [7] deals with T1, Nanoluciferase-BRD9 fusion protein (3×FLAG-NLuc-BRD9) (Homo sapiens, UniProt Q9H8M2).
T1 construct: expressed in transfected cells
T1 sequence (Q9H8M2 1-597): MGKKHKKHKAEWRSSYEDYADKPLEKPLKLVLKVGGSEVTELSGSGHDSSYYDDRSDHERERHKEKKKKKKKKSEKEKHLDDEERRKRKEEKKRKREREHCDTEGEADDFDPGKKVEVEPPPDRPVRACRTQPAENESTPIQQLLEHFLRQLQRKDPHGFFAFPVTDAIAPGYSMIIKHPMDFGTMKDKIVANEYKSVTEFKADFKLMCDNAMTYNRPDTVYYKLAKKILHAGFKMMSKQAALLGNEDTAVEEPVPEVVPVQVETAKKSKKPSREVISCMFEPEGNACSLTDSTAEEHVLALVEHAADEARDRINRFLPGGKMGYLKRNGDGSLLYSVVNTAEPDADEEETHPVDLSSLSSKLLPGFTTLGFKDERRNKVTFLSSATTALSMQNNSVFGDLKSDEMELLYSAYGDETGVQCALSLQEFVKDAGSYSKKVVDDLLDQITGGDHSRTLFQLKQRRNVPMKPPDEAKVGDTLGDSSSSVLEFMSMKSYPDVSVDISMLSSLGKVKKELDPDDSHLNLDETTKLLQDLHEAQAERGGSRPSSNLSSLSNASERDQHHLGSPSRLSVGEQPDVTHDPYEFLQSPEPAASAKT
In words: SYO1 BRD9 NanoLuc degradation assay. The settings on record: SYO-1 cells expressing 3×FLAG-NLuc-BRD9, 6 hours, top dose 1 μM; read-out: SYO1 BRD9-NanoLuc degradation IC50. The method, then: Procedure: A stable SYO-1 cell line expressing 3×FLAG-NLuc-BRD9 was generated. On day 0 cells were seeded in 30 μL media into each well of 384-well cell culture plates. The seeding density was 8000 cells/well. On day 1, cells were treated with 30 nL DMSO or 30 nL of 3-fold serially DMSO-diluted compounds (10 points in duplicates with 1 μM as final top dose). Subsequently plates were incubated for 6 hours in a standard tissue culture incubator and equilibrated at room temperature for 15 minutes. Nanoluciferase activity was measured by adding 15 μL of freshly prepared Nano-Glo Luciferase Assay Reagent (Promega N1130), shaking the plates for 10 minutes and reading the bioluminescence using an EnVision reader.
Results: The Inhibition % was calculated using the following formula: % Inhibition=100×(LumHC−LumSample)/(LumHC−LumLC). DMSO treated cells are employed as High Control (HC) and 1 μM of a known BRD9 degrader standard treated cells are employed as Low Control (LC).

On to `COc1cc(-c2cn(C)c(=O)c3cnccc23)cc(OC)c1CN(C)CC(=O)NCCOCCOCCNc1cccc2c1C(=O)N(C1CCC(=O)NC1=O)C2=O` (centres unmarked) [Compound 1, dBRD9], for which the “inhibition of the growth of the cells” value in assay [1] is listed as “results in inhibition of the growth of the cells”; in assay [2], “does not result in inhibition of the growth”; in assay [3] it was “resulted in inhibition of the growth of the cells”; in assay [4], “did not result in inhibition of the growth”. Also, in assay [3] (all synovial cell lines, vs Compound 2 and lenalidomide), the “growth inhibition compared with the other treatments” value is on record as “most significant growth inhibition in all synovial cell lines”. Also, the “numbers of cells in the S-phase of the cell cycle” value in assay [5] is given as “reduced numbers of cells in the S-phase of the cell cycle”. Moreover, the “numbers of early- and late-apoptotic cells” value in assay [6] was “increased numbers of early- and late-apoptotic cells”.

As for `COc1cc(-c2cn(C)c(=O)c3cnccc23)cc(OC)c1CN(C)C` [Compound 2, BI-7273], the “inhibition of the growth of the cells” value in assay [1] is on record as “results in inhibition of the growth of the cells”; in assay [2], “does not result in inhibition of the growth”; in assay [3], “resulted in inhibition of the growth of the cells”; in assay [4], “did not result in inhibition of the growth”.

As to `COc1cc(C2=CN(C)C(=O)N(C)C2)cc(OC)c1CN1CCC(CCN2CCN(c3ccc4c(c3)C(=O)N(C3CCC(=O)NC3=O)C4)CC2)CC1` (centres unmarked) [Compound D1, 3-(6-[4-[2-(1-[[4-(1,3-dimethyl-2-oxo-4H-pyrimidin-5-yl)-2,6-dimethoxyphenyl]methyl]piperidin-4-yl)ethyl]piperazin-1-yl]-1-oxo-3H-isoindol-2-yl)piperidine-2,6-dione], the DC50 in assay [7] is < 10 nM.

Turning to `COc1cc(C2=CN(C)C(=O)N(C)C2)cc(OC)c1CN1CCC(CCN2CCN(c3ccc4c(c3)CN(C3CCC(=O)NC3=O)C4=O)CC2)CC1` (centres unmarked) [Compound D2, 3-(5-[4-[2-(1-[[4-(1,3-dimethyl-2-oxo-4H-pyrimidin-5-yl)-2,6-dimethoxyphenyl]methyl]piperidin-4-yl)ethyl]piperazin-1-yl]-1-oxo-3H-isoindol-2-yl)piperidine-2,6-dione], the DC50 in assay [7] is < 10 nM.

Take `COc1cc(C2=CN(C)C(=O)N(C)C2)cc(OC)c1CN1CCN(CCC2CCN(c3ccc4c(c3)CN(C3CCC(=O)NC3=O)C4=O)CC2)CC1` (centres unmarked) [Compound D3, 3-(5-[4-[2-(4-[[4-(1,3-dimethyl-2-oxo-4H-pyrimidin-5-yl)-2,6-dimethoxyphenyl]methyl]piperazin-1-yl)ethyl]piperidin-1-yl]-1-oxo-3H-isoindol-2-yl)piperidine-2,6-dione Formic Acid]: the DC50 in assay [7] is < 10 nM.
